Source: patent publication US20200024278A1, “COMPOSITION COMPRISING ANTIBIOTIC COMPOUND AND AN HETEROCYCLIC COMPOUND AND THEIR USE IN PREVENTING OR TREATING BACTERIAL INFECTIONS” (MUTABILIS, priority 2016, published 2020)
Like-named read-outs stand apart in the source and are kept apart here.

Experiments:
Assay in all cases: MIC, broth microdilution (CLSI), substance alone or ATB combined with compound at 4 or 8 μg/mL
Assay type in all cases: cell-based, A. baumannii
Details in all cases: substance alone
[1] = test system: ABA UFR161
Outline: (§1)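 Per CLSI-M7-A7, MICs are determined in cation-adjusted Mueller-Hinton broth with a final inoculum of 5·10^5 CFU/mL. Plates incubate 16-20 h at 35° C in air and are read by eye. Fosfomycin assays carry 25 μg/ml glucose-6-phosphate.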

[2] = test system: ABA UFR151
Outline: as §1

[3] = test system: ABA UFR152
Outline: as §1

[4] = test system: ABA UFR154
Outline: as §1

[5] = test system: ABA UFR159
Outline: as §1

[6] = test system: ABA UFR155
Outline: as §1

[7] = test system: ABA UFR158
Outline: as §1

[8] = test system: ABA 107292
Outline: as §1

[9] = test system: ABA UFR157
Outline: as §1

[10] = test system: ABA UFR153
Outline: as §1

[11] = test system: ABA UFR156
Outline: as §1

[12] = Acinetobacter baumannii, read-out: MIC

MIC [1, 12] | MIC [2, 12] | MIC [3, 12] | MIC [4, 12] | MIC [5, 12] | MIC [6, 12] | MIC [7, 12] | MIC [8, 12] | MIC [9, 12] | MIC [10, 12] | MIC [11, 12] | SMILES | also measured
 |  |  |  |  |  |  |  |  |  |  | O=C1N2CC(n3ccnn3)=CC(C2)N1OS(=O)(=O)[O-].[Na+] (stereo not drawn) [Example 12, sodium [7-oxo-3-(triazol-1-yl)-1,6-diazabicyclo[3.2.1]oct-3-en-6-yl] sulfate] | MIC [1]: >32 µg/mL; MIC [2]: >32 µg/mL; MIC [3]: >32 µg/mL; MIC [4]: >32 µg/mL; MIC [5]: >32 µg/mL; MIC [6]: >32 µg/mL; MIC [7]: >32 µg/mL; MIC [8]: >32 µg/mL; MIC [9]: >32 µg/mL; MIC [10]: >32 µg/mL; MIC [11]: >32 µg/mL
> 32 µg/mL | > 32 µg/mL | > 32 µg/mL | > 32 µg/mL | > 32 µg/mL | > 32 µg/mL | > 32 µg/mL | > 32 µg/mL | > 32 µg/mL | > 32 µg/mL | > 32 µg/mL | O=C1N2CC(n3cccn3)=CC(C2)N1OS(=O)(=O)[O-].[Na+] (stereo not drawn) [Example 11, sodium (7-oxo-3-pyrazol-1-yl-1,6-diazabicyclo[3.2.1]oct-3-en-6-yl) sulfate] | 
> 32 µg/mL | > 32 µg/mL | > 32 µg/mL | > 32 µg/mL | > 32 µg/mL | > 32 µg/mL | > 32 µg/mL | > 32 µg/mL | > 32 µg/mL | > 32 µg/mL | > 32 µg/mL | O=C1N2CC(n3cccn3)=C[C@H](C2)N1OS(=O)(=O)[O-].[Na+] [Example 15, sodium [(5R)-7-oxo-3-pyrazol-1-yl-1,6-diazabicyclo[3.2.1]oct-3-en-6-yl] sulfate] | 
